Source: patent US4728640A, “Treatment of dysmenorrhea” (Roussel Uclaf, priority 1985, dated 1988)

Columns and labels:
[1] = tested on: testicular steriodogenosis; assay: Inhibitory activity on testicular steroidogenesis in a patient with prostate cancer, intranasal twice a day; assay type: in vivo, human; details: 500 μg intranasally twice a day
Source text: The inhibitory activity of [D Ser (tbu)^6 des Gly NH2^10 ] […] The results are reported in the graphs of sheet 2 of the Figures.

[2] = tested on: testicular steroidogensis; assay: Inhibitory activity against testicular steroidogenesis in healthy men, single intranasal dose; assay type: in vivo; details: for steroid/testosterone level on the fourth day after administration: fourth day (until 6th day)
Experimental: The inhibitory activity of [D Ser (tbu)^6 of des Gly NH2^10 ] LH-RH ethylamide (described in German application Ser. No. 2,438,350) against testicular steroidogensis in men in good health was determined on men in good health aged 30 to 40 years. The said product was administered intranasally at a dose of 500 μg in a few drops of distilled water at 8 A.M. on the third day of the test. For 2 days prior to the treatment and for 6 days after the treatment, samples of blood were taken daily at 8 A.M., 3 P.M. and 10 P.M. On the day of administration of the LH-RH agonist, blood samples were taken at 11 A.M. and 6 P.M.
The seric concentrations of LH and FSH were measured by radioimmuno-logic dosages with double antibodies and the antibodies for measuring LH and FSH were furnished by the National Pituitary Agency of N.I.H. in Bethesda, Md. The seric concentrations of steroids was measured by radioimmuno-logic dosages in which one ml of serum was extracted with ether and the steroids were separated on a LH-20 column before measuring with radioimmuno-logic dosages. The radioimmuno-logic dosage results were determined by a program derived from model II of Rodbard et al [Second Karolinska Symposium on Research Methods in Reproductive Endrocrinology, Diczfalusky Editor, Copenhague (1970), p. 79-103]. The statistical significance was determined by the "multiple level test" of Duncan-Kramer [Kramer, Biometrics, Vol 12 (1956), p. 307]. The results are shown in the graphs on sheet 1 of the Figures filed herewith.

[3] = tested on: ovarian steroidogenosis; assay: Inhibitory activity on ovarian steroidogenesis in women, intranasal; assay type: in vivo; details: for reduction of seric levels of progesterone compared to the controls: typical subject (sheet 3)
Experimental: The inhibitory activity of [D Ser (tbu)^6 des Gly NH2^10 ] LH-RH ethylamide on ovarian steroidogenosis in women was determined on 6 women aged 26 to 35 years with normal and regular menstrual cycles and without prior endocrinal or gynecological problems. […] Two drops of a solution containing 500 μg of [D Ser (tbu)^6 des Gly NH2^10 ] LH-RH ethylamide were deposited on each nostril at 8 A.M. and 5 P.M. of a day between the 4th and 9th day after the peak of LH-day 0. Daily blood samples were taken between 4 and 6 P.M. to measure seric levels of LH, FSH, progesterone and estradiol which were determined by radioimmuno-logictests with double antibodies. The antibodies to measure LH and FSH were furnished by the National Pituitory Agency of N.I.H. of Bethesda, Md.
Estradiol and progesterone were measured with highly specific antibodies developed against 7-(O-carboxymethyl)-oxime of estradiol and 12-(O-carboxymethyl)-oxime of progesterone, respectively [3H]17β-estradiol and ^125 I-progesterone-12-[O-carboxymethyl)-oxime] used as tracers. The serum was extracted with benzene and the steroids were separated with a LH-20 column before the determination. The radioimmunological results were exploited by the program derived from model II of Rodbard and Lewald as in Example 1 and the statistical significance was measured by the multiple level test of Ducan-Kramer of Example 1. The results are shown in the graphs of sheets 3 to 5 of the Figures.

[4] = human, single intranasal dose 500 μg
[5] = men, intranasal 500 μg, 3rd day following administration

`CCNC(=O)[C@@H]1CCCN1C(=O)[C@H](CCCNC(=N)N)NC(=O)[C@H](CC(C)C)NC(=O)[C@@H](COC(C)(C)C)NC(=O)[C@H](Cc1ccc(O)cc1)NC(=O)[C@H](CO)NC(=O)[C@H](Cc1c[nH]c2ccccc12)NC(=O)[C@H](Cc1c[nH]cn1)NC(=O)[C@@H]1CCC(=O)N1` [[D Ser (tbu)^6 des Gly NH2^10] LH-RH ethylamide] was tested, and the “level of androgenic steroids” value [1] was “diminution”, the level of testosterone ([1]; two weeks of treatment) was “stabilized at a very low level” and the “duration of the drop of seric levels of testicular steroids (testosterone and its precursors)” value [2, 4] was 3 days. For the same compound, the “diminution of the level of testosterone” value ([2]; human, single intranasal dose 500 μg, 3rd day following administration) was 50%, the “steroid/testosterone level on the fourth day after administration” value [2, 4] was “returned to normal” and the “steroid/testosterone level on the fourth day after administration” value ([2]; human, single intranasal dose 500 μg, listed as the peptide) was “return to normal levels”. The “LH and FSH plasmatic levels” value ([2]; men, intranasal 500 μg) was “increase”, the “concentration of 17-OH-progesterone relative to initial control values” [2, 5] was 40% and the “concentration of testosterone relative to initial control values” [2, 5] was 50%. For the same compound, the “seric concentration of pregnenolone, 17-OH-pregnenolone, progesterone, 17-OH-progesterone, Δ5-androstene-3β,17β-diol and testosterone” value ([2]; men, intranasal 500 μg, day of treatment) was “increased”, the “level of seric progesterone, course” value ([3]; 2 cycles of post-treatment) was “return to normal” and the “level of seric progesterone, course” value ([3]; 2 cycles of treatment) was “accelerated diminution”. The “reduction of the level of progesterone compared to the controls” value ([3]; 12 cycles of treatment (sheet 5), scale 13 to 127%) was 46%, the “progesterone level as % of pretreatment cycles (base 100%)” value ([3]; cycles of post-treatment (12 cycles)) was 99% and the “progesterone level as % of pretreatment cycles (base 100%)” value ([3]; cycles of treatment (12 cycles)) was 46%. For the same compound, the “reduction of seric levels of progesterone compared to the controls” value ([3]; first cycle of treatment) was 13% and the “reduction of seric levels of progesterone compared to the controls” value ([3]; second cycle of treatment) was 34%.
